The source made the active and inactive calls. The rule behind the calls is not given here.
Key:
[1] = target: T1, ALK tyrosine kinase receptor (Homo sapiens, UniProt Q9UM73); assay: Inhibition of human ALK in human SH-SY5Y cells assessed as inhibition of Akt phosphorylation at Ser473 residue at 4 uM measured after 24 hrs by Western blot assay; format: cell-based
A549 = assay: cells; format: functional, cell-based; settings: Homo sapiens, A549, 72 h
Description: Antiproliferative activity against human A549 cells assessed as inhibition of cell proliferation measured after 72 hrs by CCK8 assay

[2] = tested on: ALK tyrosine kinase receptor (Homo sapiens), Q9UM73 [G1202R]; assay: Potency index, ratio of repotrectinib IC50 to test compound IC50 for inhibition of ALK G1202R mutant (unknown origin)
Histone deacetylase 1 = Histone deacetylase 1 (Homo sapiens, UniProt Q13547); settings: Sf9, dose 10.0 nM, time 15.0 min
MDA-MB-231 [3] = assay: Cell cycle arrest in human MDA-MB-231 cells assessed as accumulation of cells at G2 phase at 2 uM measured after 24 hrs by PI staining based flowcytometry method (reference value: 23.89%); format: functional
HepG2 = assay: Potency index, ratio of crizotinib IC50 to test compound IC50 for human HepG2 cells assessed as inhibition of cell proliferation measured after 72 hrs by CCK8 assay; format: functional
[4] = target: T1, ALK tyrosine kinase receptor; assay: Inhibition of human ALK in human SH-SY5Y cells assessed as inhibition of ALK phosphorylation at Tyr1278 residue at 4 uM measured after 24 hrs by Western blot assay; format: cell-based
NCI-H2228 = assay: Potency index, ratio of crizotinib IC50 to test compound IC50 for human NCI-H2228 cells harboring EML4/ALK […] assessed as inhibition of cell proliferation measured after 72 hrs by CCK8 assay; format: functional
[5] = target: T1, ALK tyrosine kinase receptor; assay: Inhibition of ALK in human MDA-MB-231 cells assessed as inhibition of AKT phosphorylation at Ser473 residue at 4 uM measured after 24 hrs by Western blot assay; format: cell-based
[6] = Cmax in Sprague-Dawley rat at 1 mg/kg, iv measured for 12 hrs by LC-MS/MS analysis; format: ADME, organism-based; parameters: route intravenous, time 12 hrs, dose 1 mg/kg; settings: in vivo
MDA-MB-231 [7] = assay: Inhibition of colony formation in human MDA-MB-231 cells at 0.1 to 0.4 uM incubated for 3 days followed by incubation in drug-free medium for 12 days by crystal violet staining based assay; format: functional, cell-based; settings: dose 0.1-0.4 µM, time 3.0 day
Histone deacetylase 2 = Histone deacetylase 2 (Homo sapiens, UniProt Q92769)
Description: Inhibition of HDAC2 (unknown origin)

MDA-MB-231 [8] = assay: Induction of apoptosis in human MDA-MB-231 cells assessed as necrotic cells at 2 uM measured after 24 hrs by Annexin V-FITC/PI staining based flowcytometry (reference value: 0.94%); format: functional
[9] = target: T1, ALK tyrosine kinase receptor; assay: Inhibition of human ALK in human SH-SY5Y cells assessed as inhibition of ERK phosphorylation at Thr202/Tyr204 residue at 4 uM measured after 24 hrs by Western blot assay; format: cell-based
MDA-MB-231 [10] = assay: Cell cycle arrest in human MDA-MB-231 cells assessed as accumulation of cells at S phase at 1 uM measured after 24 hrs by PI staining based flowcytometry method (reference value: 20.81%); format: functional
SH-SY5Y [11] = assay: Induction of apoptosis in human SH-SY5Y cells assessed as necrotic cells at 2 uM measured after 24 hrs by Annexin V-FITC/PI staining based flowcytometry (reference value: 7.81%); format: functional
[12] = target: Insulin-like growth factor 1 receptor (Homo sapiens) (UniProt P08069); assay: Inhibition of human IGF1R at 1 uM
SH-SY5Y [13] = assay: Antimigratory activity against human SH-SY5Y cells assessed as wound closure at 0.4 uM measured after 48 hrs by cell scratch assay (reference value: 15.1%); format: functional
MDA-MB-231 [14] = assay: cells; format: functional, cell-based; settings: Homo sapiens, MDA-MB-231, 72 h
Description: Antiproliferative activity against human MDA-MB-231 cells assessed as inhibition of cell proliferation measured after 72 hrs by CCK8 assay

SH-SY5Y [15] = assay: Induction of apoptosis in human SH-SY5Y cells assessed as necrotic cells at 4 uM measured after 24 hrs by Annexin V-FITC/PI staining based flowcytometry (reference value: 7.81%); format: functional
SH-SY5Y [16] = assay: Induction of apoptosis in human SH-SY5Y cells assessed as viable cells at 4 uM measured after 24 hrs by Annexin V-FITC/PI staining based flowcytometry (reference value: 77.05%); format: functional; settings: read-out: Activity
[17] = target: T1, ALK tyrosine kinase receptor; assay: Inhibition of human ALK in human SH-SY5Y cells assessed as inhibition of ERK phosphorylation at Thr202/Tyr204 residue measured after 24 hrs by Western blot assay; format: cell-based; settings: dose 1-4 µM
[18] = target: T1, ALK tyrosine kinase receptor; assay: Inhibition of human ALK in human SH-SY5Y cells assessed as inhibition of ALK phosphorylation at Tyr1278 residue measured after 24 hrs by Western blot assay; format: cell-based; settings: dose 1-4 µM
[19] = target: Histone deacetylase (Homo sapiens) (UniProt Q13547+O15379+Q9UBN7+Q92769+Q9UQL6+Q8WUI4+Q9BY41+Q96DB2+P56524+Q9UKV0+Q969S8); assay: Inhibition of HDAC in human MDA-MB-231 cells assessed as increase of intracellular acetylated histone H3 level at 1 to 4 uM measured after 24 hrs by Western blot assay; format: cell-based; settings: dose 1-4 µM
[20] = target: T1, ALK tyrosine kinase receptor; assay: Inhibition of human ALK at 1 uM
SH-SY5Y [21] = assay: Cell cycle arrest in human SH-SY5Y cells assessed as accumulation of cells at G2 phase at 1 uM measured after 24 hrs by PI staining based flowcytometry method (reference value: 13.23%); format: functional
[22] = target: T1, ALK tyrosine kinase receptor; assay: Inhibition of ALK in human MDA-MB-231 cells assessed as inhibition of ERK phosphorylation at Thr202/Tyr204 residue at 4 uM measured after 24 hrs by Western blot assay; format: cell-based
SH-SY5Y [23] = assay: Induction of apoptosis in human SH-SY5Y cells assessed as late apoptotic cells at 4 uM measured after 24 hrs by Annexin V-FITC/PI staining based flowcytometry (reference value: 14.32%); format: functional
SH-SY5Y [24] = assay: Cell cycle arrest in human SH-SY5Y cells assessed as accumulation of cells at G1 phase at 4 uM measured after 24 hrs by PI staining based flowcytometry method (reference value: 59.8%); format: functional
SH-SY5Y [25] = assay: Cell cycle arrest in human SH-SY5Y cells assessed as accumulation of cells at G1 phase at 1 uM measured after 24 hrs by PI staining based flowcytometry method (reference value: 59.8%); format: functional

T1 sequence (Q9UM73 19-1620 limits assumed): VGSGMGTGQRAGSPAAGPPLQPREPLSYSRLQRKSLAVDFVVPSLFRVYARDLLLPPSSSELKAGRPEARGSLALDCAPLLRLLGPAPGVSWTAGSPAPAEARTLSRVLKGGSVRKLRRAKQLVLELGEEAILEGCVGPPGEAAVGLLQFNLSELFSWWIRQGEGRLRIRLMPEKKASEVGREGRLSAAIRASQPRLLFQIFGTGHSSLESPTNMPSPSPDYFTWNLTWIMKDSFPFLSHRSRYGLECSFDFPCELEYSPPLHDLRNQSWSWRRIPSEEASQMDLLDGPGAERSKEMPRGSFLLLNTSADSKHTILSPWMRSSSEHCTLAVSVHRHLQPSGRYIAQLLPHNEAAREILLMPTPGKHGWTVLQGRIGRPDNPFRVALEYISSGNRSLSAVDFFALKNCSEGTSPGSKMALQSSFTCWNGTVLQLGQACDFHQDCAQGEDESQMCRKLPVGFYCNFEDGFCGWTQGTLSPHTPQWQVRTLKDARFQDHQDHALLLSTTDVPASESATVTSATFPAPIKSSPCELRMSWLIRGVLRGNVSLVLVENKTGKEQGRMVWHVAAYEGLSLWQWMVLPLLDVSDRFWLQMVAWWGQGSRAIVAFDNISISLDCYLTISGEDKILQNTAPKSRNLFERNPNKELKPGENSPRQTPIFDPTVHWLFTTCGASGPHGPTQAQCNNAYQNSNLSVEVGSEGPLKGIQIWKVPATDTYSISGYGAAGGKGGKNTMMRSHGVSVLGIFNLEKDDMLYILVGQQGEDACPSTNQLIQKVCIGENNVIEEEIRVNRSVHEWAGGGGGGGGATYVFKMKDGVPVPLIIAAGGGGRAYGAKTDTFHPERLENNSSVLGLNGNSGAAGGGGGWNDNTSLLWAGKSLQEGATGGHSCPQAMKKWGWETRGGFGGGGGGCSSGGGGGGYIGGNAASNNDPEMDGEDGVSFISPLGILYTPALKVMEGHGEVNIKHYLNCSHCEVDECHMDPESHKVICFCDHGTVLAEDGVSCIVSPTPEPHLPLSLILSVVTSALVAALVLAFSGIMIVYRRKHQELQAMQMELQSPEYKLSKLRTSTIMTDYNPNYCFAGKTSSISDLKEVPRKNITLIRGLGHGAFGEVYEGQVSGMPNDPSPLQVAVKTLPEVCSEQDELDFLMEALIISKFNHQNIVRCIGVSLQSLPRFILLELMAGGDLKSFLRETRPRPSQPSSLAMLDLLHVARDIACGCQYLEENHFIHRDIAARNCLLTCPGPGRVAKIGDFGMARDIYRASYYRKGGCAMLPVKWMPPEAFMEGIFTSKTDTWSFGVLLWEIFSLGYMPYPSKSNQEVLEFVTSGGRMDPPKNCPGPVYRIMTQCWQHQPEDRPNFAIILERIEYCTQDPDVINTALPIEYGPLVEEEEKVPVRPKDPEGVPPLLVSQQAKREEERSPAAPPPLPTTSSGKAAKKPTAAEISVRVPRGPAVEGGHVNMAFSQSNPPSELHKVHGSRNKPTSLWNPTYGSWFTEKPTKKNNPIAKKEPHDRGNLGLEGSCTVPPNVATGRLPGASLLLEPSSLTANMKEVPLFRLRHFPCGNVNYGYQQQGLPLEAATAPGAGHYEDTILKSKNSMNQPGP
Histone deacetylase 1, sequence (Q13547 whole entry): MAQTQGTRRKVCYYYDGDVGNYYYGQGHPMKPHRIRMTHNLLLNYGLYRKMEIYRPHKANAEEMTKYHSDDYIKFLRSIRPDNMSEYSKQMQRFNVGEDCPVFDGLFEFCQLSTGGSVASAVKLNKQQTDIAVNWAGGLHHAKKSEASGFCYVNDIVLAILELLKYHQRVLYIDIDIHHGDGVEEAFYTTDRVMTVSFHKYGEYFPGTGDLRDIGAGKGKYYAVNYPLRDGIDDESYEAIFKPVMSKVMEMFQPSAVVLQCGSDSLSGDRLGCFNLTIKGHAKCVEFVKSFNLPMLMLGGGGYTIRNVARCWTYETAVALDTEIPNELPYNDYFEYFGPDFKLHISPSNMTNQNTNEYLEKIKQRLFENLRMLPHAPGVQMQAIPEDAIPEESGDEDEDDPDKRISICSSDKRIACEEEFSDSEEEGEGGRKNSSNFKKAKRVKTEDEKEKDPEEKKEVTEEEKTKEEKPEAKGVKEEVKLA
Histone deacetylase 2, sequence (Q92769 whole entry): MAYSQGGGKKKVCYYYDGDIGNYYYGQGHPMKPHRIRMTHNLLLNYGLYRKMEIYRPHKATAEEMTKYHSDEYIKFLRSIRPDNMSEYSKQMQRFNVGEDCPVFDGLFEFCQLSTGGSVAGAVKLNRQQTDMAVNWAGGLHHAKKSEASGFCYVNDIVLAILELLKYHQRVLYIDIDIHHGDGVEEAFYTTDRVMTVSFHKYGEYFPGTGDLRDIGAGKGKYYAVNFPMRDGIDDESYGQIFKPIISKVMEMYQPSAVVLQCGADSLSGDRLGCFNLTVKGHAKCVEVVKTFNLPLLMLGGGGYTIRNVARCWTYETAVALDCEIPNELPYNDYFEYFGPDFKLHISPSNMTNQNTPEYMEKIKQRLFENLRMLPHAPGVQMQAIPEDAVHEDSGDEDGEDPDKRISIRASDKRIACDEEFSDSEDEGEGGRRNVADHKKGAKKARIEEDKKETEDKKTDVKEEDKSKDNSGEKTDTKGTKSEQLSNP
Insulin-like growth factor 1 receptor (Homo sapiens), sequence (P08069 31-736 limits assumed): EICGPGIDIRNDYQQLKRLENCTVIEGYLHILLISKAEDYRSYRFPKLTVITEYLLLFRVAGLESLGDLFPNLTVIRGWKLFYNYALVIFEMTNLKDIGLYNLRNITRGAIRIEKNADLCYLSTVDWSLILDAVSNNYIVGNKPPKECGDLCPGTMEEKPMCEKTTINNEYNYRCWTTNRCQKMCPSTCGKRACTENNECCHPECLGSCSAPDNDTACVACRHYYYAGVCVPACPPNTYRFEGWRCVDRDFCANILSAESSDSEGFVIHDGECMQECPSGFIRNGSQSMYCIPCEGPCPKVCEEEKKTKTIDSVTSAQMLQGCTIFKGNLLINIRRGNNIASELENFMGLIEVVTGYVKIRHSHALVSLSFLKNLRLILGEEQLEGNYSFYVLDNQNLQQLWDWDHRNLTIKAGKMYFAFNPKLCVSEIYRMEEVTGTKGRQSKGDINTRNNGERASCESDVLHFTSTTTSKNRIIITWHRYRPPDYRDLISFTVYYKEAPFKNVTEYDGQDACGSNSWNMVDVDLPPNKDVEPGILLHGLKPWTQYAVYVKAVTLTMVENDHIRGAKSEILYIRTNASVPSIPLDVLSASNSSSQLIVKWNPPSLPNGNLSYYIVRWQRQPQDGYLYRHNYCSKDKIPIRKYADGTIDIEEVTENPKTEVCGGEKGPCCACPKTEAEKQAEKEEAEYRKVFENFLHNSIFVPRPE
Insulin-like growth factor 1 receptor (Homo sapiens), sequence (P08069 741-1367 limits assumed): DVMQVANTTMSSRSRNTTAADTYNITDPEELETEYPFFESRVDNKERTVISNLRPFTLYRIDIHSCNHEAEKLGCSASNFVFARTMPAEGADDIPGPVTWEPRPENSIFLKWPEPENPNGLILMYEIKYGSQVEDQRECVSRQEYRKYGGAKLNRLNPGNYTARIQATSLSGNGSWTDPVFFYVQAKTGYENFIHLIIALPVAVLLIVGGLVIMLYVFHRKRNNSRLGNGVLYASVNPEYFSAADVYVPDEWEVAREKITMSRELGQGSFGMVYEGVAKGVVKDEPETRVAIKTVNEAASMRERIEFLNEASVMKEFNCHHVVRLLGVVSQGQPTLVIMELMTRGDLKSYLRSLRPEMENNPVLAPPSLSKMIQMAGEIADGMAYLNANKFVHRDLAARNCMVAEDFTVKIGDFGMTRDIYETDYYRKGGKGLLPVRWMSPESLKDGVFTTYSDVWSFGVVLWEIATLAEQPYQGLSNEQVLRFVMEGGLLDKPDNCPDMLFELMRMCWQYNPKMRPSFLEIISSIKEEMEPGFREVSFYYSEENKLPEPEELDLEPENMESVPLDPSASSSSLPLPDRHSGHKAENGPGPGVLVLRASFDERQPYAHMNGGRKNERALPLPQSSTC

Compound: CC(C)S(=O)(=O)c1ccccc1Nc1nc(Nc2ccc(NC(=O)CCCCCCC(=O)NO)cc2)ncc1Cl
- inhibition [1]: Active
- IC50 (A549): 460 nM
- Ratio IC50 [2]: 10
- inhibition (Histone deacetylase 1): 54%
- Activity (MDA-MB-231 [3]): 49.05%
- Ratio IC50 (HepG2): 3
- inhibition [4]: Active
- Ratio IC50 (NCI-H2228): 3
- inhibition [5]: Active
- Cmax [6]: 1480 ng/mL
- inhibition (MDA-MB-231 [7]): Active
- IC50 (Histone deacetylase 2): 9.3 nM
- Activity (MDA-MB-231 [8]): 1.68%
- inhibition [9]: Active
- Activity (MDA-MB-231 [10]): 32.42%
- Activity (SH-SY5Y [11]): 10.51%
- inhibition [12]: Active
- Activity (SH-SY5Y [13]): 2.8%
- IC50 (MDA-MB-231 [14]): 460 nM
- Activity (SH-SY5Y [15]): 12.95%
- viability at 4 µM (SH-SY5Y [16]): 38.3%
- inhibition [17]: Dose-Dependent Effect
- inhibition [18]: Dose-Dependent Effect
- inhibition [19]: Active
- inhibition [20]: Active
- Activity (SH-SY5Y [21]): 48.7%
- inhibition [22]: Active
- Activity (SH-SY5Y [23]): 45.5%
- Activity (SH-SY5Y [24]): 4.38%
- Activity (SH-SY5Y [25]): 32.97%

— ChEMBL document CHEMBL4828709, “Discovery of 2,4-pyrimidinediamine derivatives as potent dual inhibitors of ALK and HDAC” (Eur J Med Chem, 2021)
